Results on ten compounds are retold here after PubChem BioAssay (NCI).

Some test systems named below: A549 NSCLC; CAKI-1 renal; HL-60(TB) leukemia; HOP-62 NSCLC; NCI-H460 lung; NCI-H522 lung; OVCAR-4 ovarian; PC-3 prostate; SF-268 CNS; SK-MEL-28 melanoma; SK-OV-3 ovarian; SNB-75 CNS; TK-10 renal; UACC-257 melanoma.
Common to all, as to test: NCI anticancer screen, dose series, 48 h

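Values below derive from 48-hour exposures of cells grown in 96-well plates, with endpoints linearly interpolated between the two concentrations bracketing the appropriate inhibition level. TGI: total growth inhibition.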 A value given as a limit tells only on which side of the number the result lay.

Regarding `CS(=O)(=O)OCCCCOS(=O)(=O)CF`, the TGI with A549 NSCLC, in the assay with CAKI-1 renal, with HL-60(TB) leukemia, in the assay with HOP-62 NSCLC, in the assay on NCI-H460 lung and with NCI-H522 lung was over 100 µM in each case. Further, the TGI with OVCAR-4 ovarian, in the assay with PC-3 prostate, in the assay on SF-268 CNS, in the assay with SK-MEL-28 melanoma, with SK-OV-3 ovarian and with SNB-75 CNS was over 100 µM each time. In addition, the TGI in the assay with TK-10 renal and with UACC-257 melanoma was over 100 µM each time.
With `CC(C)=C1C(=O)C[C@]2(C)C[C@H]3O[C@]3(C)CC[C@@H]3O[C@@]3(C)CC[C@@H]12`, the TGI in the assay with A549 NSCLC, with CAKI-1 renal, in the assay on HL-60(TB) leukemia, in the assay on HOP-62 NSCLC, with NCI-H460 lung and in the assay on NCI-H522 lung was over 50 µM throughout. Also, the TGI with OVCAR-4 ovarian, in the assay with PC-3 prostate, with SF-268 CNS, in the assay on SK-MEL-28 melanoma, with SK-OV-3 ovarian and in the assay on SNB-75 CNS was over 50 µM each time. Besides, the TGI with TK-10 renal and in the assay on UACC-257 melanoma was over 50 µM in each case.
With `CSC(=N/C=C/c1ccccc1)SC`, the TGI in the assay on A549 NSCLC, in the assay with CAKI-1 renal, in the assay with HL-60(TB) leukemia, with HOP-62 NSCLC, in the assay with NCI-H460 lung and with NCI-H522 lung was over 100 µM in each case. In addition, the TGI in the assay with OVCAR-4 ovarian, with PC-3 prostate, with SF-268 CNS, in the assay with SK-MEL-28 melanoma, in the assay with SK-OV-3 ovarian and in the assay with SNB-75 CNS was over 100 µM throughout. The TGI in the assay with UACC-257 melanoma was over 100 µM.
Turning to `CN(Cc1cnc2nc(N)nc(N)c2n1)c1ccc(C(=O)NCCS(=O)(=O)O)cc1`, the TGI with A549 NSCLC, in the assay with CAKI-1 renal, in the assay with HL-60(TB) leukemia, in the assay with HOP-62 NSCLC, in the assay with NCI-H460 lung and in the assay with NCI-H522 lung was over 100 µM throughout. For the same compound, the TGI in the assay on OVCAR-4 ovarian, with PC-3 prostate, in the assay on SF-268 CNS, in the assay on SK-MEL-28 melanoma, in the assay with SK-OV-3 ovarian and with SNB-75 CNS was over 100 µM throughout. The TGI in the assay with TK-10 renal and with UACC-257 melanoma was over 100 µM throughout.
Consider `CN1Cc2ccccc2S(=O)(=O)n2cccc2C1=O`, for which the TGI in the assay on A549 NSCLC, in the assay on CAKI-1 renal, with HL-60(TB) leukemia, in the assay on HOP-62 NSCLC, in the assay with NCI-H460 lung and with NCI-H522 lung was over 100 µM throughout. The TGI in the assay with OVCAR-4 ovarian, in the assay on PC-3 prostate, with SK-MEL-28 melanoma, in the assay on SK-OV-3 ovarian, in the assay on SNB-75 CNS and in the assay with TK-10 renal was over 100 µM throughout. Further, the TGI with UACC-257 melanoma was over 100 µM.
In the case of `Nc1ncc(Br)c(NCC2(CO)CCC2)n1`, the TGI in the assay on A549 NSCLC, in the assay on CAKI-1 renal, with HL-60(TB) leukemia, in the assay with HOP-62 NSCLC, with NCI-H460 lung and in the assay with NCI-H522 lung was over 100 µM throughout. Besides, the TGI with OVCAR-4 ovarian, in the assay with PC-3 prostate, with SF-268 CNS, with SK-MEL-28 melanoma, in the assay with SNB-75 CNS and in the assay with TK-10 renal was over 100 µM each time. This compound also displayed a TGI in the assay on UACC-257 melanoma of over 100 µM.
`CN(C)CCNc1ccc([N+](=O)[O-])c2sc3ccccc3c(=O)c12`: the TGI with A549 NSCLC worked out at 20.2 µM; with HL-60(TB) leukemia it was 12.5 µM; in the assay on HOP-62 NSCLC, 8.36 µM; in the assay on NCI-H460 lung it was 7.49 µM; in the assay on NCI-H522 lung, 5.15 µM; in the assay on OVCAR-4 ovarian, 9.27 µM. Besides, the TGI in the assay with PC-3 prostate was 21.6 µM; with SF-268 CNS it was 48.8 µM; in the assay with SK-MEL-28 melanoma, 21.5 µM; in the assay with SK-OV-3 ovarian, over 100 µM; in the assay on SNB-75 CNS, 35.6 µM; with TK-10 renal it was over 100 µM. The TGI with UACC-257 melanoma came to 19.6 µM.
On to `Cc1ccc(N=N/C(=N/NC(=O)c2cc(Cl)ccc2O)c2ccc(N(CCC#N)CCC#N)cc2C)cc1`, for which the TGI with A549 NSCLC is over 100 µM; in the assay on CAKI-1 renal it was over 100 µM; in the assay with HL-60(TB) leukemia, over 100 µM; in the assay on HOP-62 NSCLC, over 100 µM; with NCI-H460 lung, 68.8 µM; in the assay on NCI-H522 lung, 31.4 µM. The TGI in the assay with OVCAR-4 ovarian was 97.7 µM; with PC-3 prostate, over 100 µM; in the assay with SF-268 CNS it was over 100 µM; in the assay on SK-OV-3 ovarian, 74.2 µM; in the assay on SNB-75 CNS, 86.8 µM; in the assay on TK-10 renal, 87.2 µM. The compound also showed a TGI with UACC-257 melanoma of 47.2 µM.
On to `C=CC[C@H]1O[Si](C(C)(C)C)(C(C)(C)C)[C@H](C)[C@H]1C`, for which the TGI in the assay with A549 NSCLC, in the assay on CAKI-1 renal, with HL-60(TB) leukemia, in the assay on HOP-62 NSCLC, with NCI-H522 lung and with OVCAR-4 ovarian was over 100 µM each time. The TGI in the assay with PC-3 prostate, with SK-MEL-28 melanoma, in the assay with SK-OV-3 ovarian, in the assay with SNB-75 CNS, in the assay on TK-10 renal and in the assay with UACC-257 melanoma was over 100 µM each time.
Consider `NC(=O)c1ccc(C(=O)Nc2ccc([As](=O)(O)O)cc2)cc1`, for which the TGI in the assay on A549 NSCLC, in the assay with CAKI-1 renal, in the assay on HL-60(TB) leukemia, in the assay with HOP-62 NSCLC, with NCI-H460 lung and in the assay with NCI-H522 lung was over 100 µM each time. The TGI in the assay with OVCAR-4 ovarian, in the assay on PC-3 prostate, in the assay with SF-268 CNS, in the assay with SK-MEL-28 melanoma, with SK-OV-3 ovarian and with SNB-75 CNS was over 100 µM each time. Moreover, the TGI in the assay with TK-10 renal was over 100 µM.
